From PubChem BioAssay AID306 (DTP/NCI, 2004)
Several values for one entry are separate records, joined by “and”; a condition that tells them apart may be missing. Equal entries are not always repeated. Inconclusive results and toxic doses are left out. How the source made its calls: active means survival T/C of 150% or more; inactive means T/C below 125% in these data. *1 amine or outer side, *2 acyl side, *3 side chain or, on linkers, in order; H or OH if unused. Where a SMILES comes first, the peptide text is derived from it. Bridges are numbered along the chain shown (N, C = ends). Roman numbers before positions name the chains, in order. [ ]: non-standard residue; d: D form. Actinocin(9to1) = Cc1c2oc3c(C)ccc(C(=O)[*:1])c3nc-2c(C(=O)[*:2])c(N)c1=O; aThr = C[C@H](O)[C@H](N)C(=O)O; NMeV = CN[C@H](C(=O)O)C(C)C; Sar = CNCC(=O)O

Tested on: BDF1 mice, L1210 Methyl-GAG-resistant leukemia, survival T/C
Test: NCI In Vivo Anticancer Drug Screen. Data for tumor model L1210 Leukemia resistant to Methyl-GAG; NSC 32946 (subcutaneous) in B6D2F1 (BDF1) mice
Conditions: endpoint: mean survival time, higher = longer survival
Method: The antitumor activity of compounds was measured in mice bearing transplantable tumors. Survival or tumor size were measured and the results are expressed as the measurement made in the treated group (T) divided by the measurement made in the vehicle treated control group (C). The tumor model used in this assay is L1210 Leukemia resistant to Methyl-GAG; NSC 32946 (subcutaneous) in B6D2F1 (BDF1) mice

[1] = dose: 12.5 mg/kg/injection, schedule: Q01DX Z (ip), vehicle: carboxymethylcellulose (CMC)
[2] = dose: 25.0 mg/kg/injection, schedule: Q01DX Z (ip), vehicle: carboxymethylcellulose (CMC)
[3] = dose: 50.0 mg/kg/injection, schedule: Q01DX Z (ip), vehicle: carboxymethylcellulose (CMC)
[4] = dose: 100.0 mg/kg/injection, schedule: Q01DX Z (ip), vehicle: carboxymethylcellulose (CMC)
[5] = dose: 200.0 mg/kg/injection, schedule: Q01DX Z (ip), vehicle: carboxymethylcellulose (CMC)
[6] = dose: 5.0 mg/kg/injection, schedule: Q01DX Z (ip), vehicle: carboxymethylcellulose (CMC)
[7] = dose: 10.0 mg/kg/injection, schedule: Q01DX Z (ip), vehicle: carboxymethylcellulose (CMC)
[8] = dose: 5.0 mg/kg/injection, schedule: Q01DX Z (ip), vehicle: saline
[9] = dose: 10.0 mg/kg/injection, schedule: Q01DX Z (ip), vehicle: saline

Measured: T/C

Cc1c2oc3c(C)ccc(C(=O)N[C@@H]4C(=O)N[C@H](C(C)C)C(=O)N5CCC[C@H]5C(=O)N(C)CC(=O)N(C)[C@@H](C(C)C)C(=O)O[C@H]4C)c3nc-2c(C(=O)N[C@@H]2C(=O)N[C@H](C(C)C)C(=O)N3CCC[C@H]3C(=O)N(C)CC(=O)N(C)[C@@H](C(C)C)C(=O)O[C@H]2C)c(N)c1=O (I: [aThr][dV]P[Sar][NMeV] / II: [aThr][dV]P[Sar][NMeV]; ester I:1-I:C, II:1-II:C; linker I:N-II:N via Actinocin(9to1))
inactive: dose: 0.8 micrograms/kg/injection, schedule: Q01DX Z (ip), vehicle: saline 96 % of control | dose: 6.4 micrograms/kg/injection, schedule: Q01DX Z (ip), vehicle: saline 93 % of control | dose: 25.6 micrograms/kg/injection, schedule: Q01DX Z (ip), vehicle: saline 96 % of control | dose: 51.2 micrograms/kg/injection, schedule: Q01DX Z (ip), vehicle: saline 98 % of control | dose: 102.0 micrograms/kg/injection, schedule: Q01DX Z (ip), vehicle: saline 90 % of control

O=C(O)CCCc1ccc(N(CCCl)CCCl)cc1
inactive: dose: 6.25 mg/kg/injection, schedule: Q01DX Z (ip), vehicle: carboxymethylcellulose (CMC) 91 % of control | [1] 98 % of control | [2] 104 % of control

Cn1cnc([N+](=O)[O-])c1Sc1nc(N)nc2nc[nH]c12
inactive: dose: 1.0 mg/kg/injection, schedule: Q01DX Z (ip), vehicle: carboxymethylcellulose (CMC) 98 % of control | dose: 2.0 mg/kg/injection, schedule: Q01DX Z (ip), vehicle: carboxymethylcellulose (CMC) 106 % of control | dose: 8.0 mg/kg/injection, schedule: Q01DX Z (ip), vehicle: carboxymethylcellulose (CMC) 88 % of control
active: dose: 4.0 mg/kg/injection, schedule: Q01DX Z (ip), vehicle: carboxymethylcellulose (CMC) 162 % of control

CC[C@@H](c1ccc(O)cc1)[C@@H](CC)c1ccc(O)cc1
inactive: dose: 16.0 mg/kg/injection, schedule: Q01DX Z (sc), vehicle: steriod suspending solution 96 % of control | dose: 32.0 mg/kg/injection, schedule: Q01DX Z (sc), vehicle: steriod suspending solution 96 % of control | dose: 62.5 mg/kg/injection, schedule: Q01DX Z (sc), vehicle: steriod suspending solution 100 % of control | dose: 125.0 mg/kg/injection, schedule: Q01DX Z (sc), vehicle: steriod suspending solution 100 % of control | dose: 250.0 mg/kg/injection, schedule: Q01DX Z (sc), vehicle: steriod suspending solution 108 % of control | dose: 500.0 mg/kg/injection, schedule: Q01DX Z (sc), vehicle: steriod suspending solution 98 % of control and 101 % of control | dose: 1000.0 mg/kg/injection, schedule: Q01DX Z (sc), vehicle: steriod suspending solution 95 % of control

CC(=O)[C@H]1CC[C@H]2[C@@H]3C[C@H](C)C4=CC(=O)CC[C@]4(C)[C@H]3C(=O)C[C@]12C
inactive: dose: 25.0 mg/kg/injection, schedule: Q01DX Z (sc), vehicle: steriod suspending solution 97 % of control | dose: 50.0 mg/kg/injection, schedule: Q01DX Z (sc), vehicle: steriod suspending solution 95 % of control and 103 % of control | dose: 100.0 mg/kg/injection, schedule: Q01DX Z (sc), vehicle: steriod suspending solution 97 % of control and 103 % of control and 114 % of control | dose: 200.0 mg/kg/injection, schedule: Q01DX Z (sc), vehicle: steriod suspending solution 90 % of control and 105 % of control and 111 % of control | dose: 400.0 mg/kg/injection, schedule: Q01DX Z (sc), vehicle: steriod suspending solution 105 % of control and 112 % of control | dose: 800.0 mg/kg/injection, schedule: Q01DX Z (sc), vehicle: steriod suspending solution 120 % of control

C[N+](C)(C)c1ncnc2nc[nH]c12
inactive: [1] 101 % of control | [2] 103 % of control | [3] 101 % of control and 112 % of control | [4] 94 % of control and 117 % of control | [5] 102 % of control

N#Cc1cn(C2OC(CO)C(O)C2O)c2ncnc(N)c12 (configuration not stated)
inactive: dose: 63.0 micrograms/kg/injection, schedule: Q01DX Z (ip), vehicle: carboxymethylcellulose (CMC) 96 % of control | dose: 125.0 micrograms/kg/injection, schedule: Q01DX Z (ip), vehicle: carboxymethylcellulose (CMC) 102 % of control | dose: 250.0 micrograms/kg/injection, schedule: Q01DX Z (ip), vehicle: carboxymethylcellulose (CMC) 115 % of control | dose: 500.0 micrograms/kg/injection, schedule: Q01DX Z (ip), vehicle: carboxymethylcellulose (CMC) 93 % of control

CC(=O)Nc1ccc2nc3ccc(NC(C)=O)cc3[n+](-c3ccccc3)c2c1
inactive: [1] 97 % of control | [2] 97 % of control | [3] 113 % of control | [4] 98 % of control | [5] 88 % of control | dose: 400.0 mg/kg/injection, schedule: Q01DX Z (ip), vehicle: carboxymethylcellulose (CMC) 93 % of control

CCCNc1ncnc2[nH]ncc12
inactive: dose: 5.0 mg/kg/injection, schedule: Q01DX Z (ip), vehicle: water 96 % of control | dose: 10.0 mg/kg/injection, schedule: Q01DX Z (ip), vehicle: water 93 % of control | dose: 20.0 mg/kg/injection, schedule: Q01DX Z (ip), vehicle: water 120 % of control | dose: 40.0 mg/kg/injection, schedule: Q01DX Z (ip), vehicle: water 88 % of control and 112 % of control

Nc1nc(N)c2nc(CNc3ccc(C(=O)NC(CCC(=O)O)C(=O)O)cc3)cnc2n1 (configuration not stated)
inactive: dose: 2.0 micrograms/kg/injection, schedule: Q01DX Z (ip), vehicle: alkali diluted with saline 98 % of control | dose: 4.0 micrograms/kg/injection, schedule: Q01DX Z (ip), vehicle: alkali diluted with saline 100 % of control | dose: 16.0 micrograms/kg/injection, schedule: Q01DX Z (ip), vehicle: alkali diluted with saline 110 % of control | dose: 31.0 micrograms/kg/injection, schedule: Q01DX Z (ip), vehicle: alkali diluted with saline 88 % of control | dose: 125.0 micrograms/kg/injection, schedule: Q01DX Z (ip), vehicle: alkali diluted with saline 94 % of control
active: dose: 63.0 micrograms/kg/injection, schedule: Q01DX Z (ip), vehicle: alkali diluted with saline 187 % of control

CC(CCC(C)OS(C)(=O)=O)OS(C)(=O)=O (configuration not stated)
inactive: [6] 90 % of control | [7] 87 % of control | dose: 20.0 mg/kg/injection, schedule: Q01DX Z (ip), vehicle: carboxymethylcellulose (CMC) 95 % of control

S=P(N1CC1)(N1CC1)N1CC1
inactive: dose: 0.62 mg/kg/injection, schedule: Q01DX Z (ip), vehicle: saline 111 % of control | [9] 110 % of control
active: [8] 150 % of control

CN(Cc1cnc2nc(N)nc(N)c2n1)c1c(Cl)cc(C(=O)NC(CCC(=O)O)C(=O)O)cc1Cl (configuration not stated)
active: [3] 195 % of control | [4] 317 % of control
inactive: [1] 116 % of control

Clc1ncnc2nc[nH]c12
inactive: dose: 31.25 mg/kg/injection, schedule: Q01DX Z (ip), vehicle: carboxymethylcellulose (CMC) 100 % of control | dose: 62.5 mg/kg/injection, schedule: Q01DX Z (ip), vehicle: carboxymethylcellulose (CMC) 90 % of control | dose: 125.0 mg/kg/injection, schedule: Q01DX Z (ip), vehicle: carboxymethylcellulose (CMC) 121 % of control

CCN(CC)C(=S)S
inactive: dose: 125.0 mg/kg/injection, schedule: Q01DX Z (ip), vehicle: other 96 % of control | dose: 250.0 mg/kg/injection, schedule: Q01DX Z (ip), vehicle: other 92 % of control | dose: 500.0 mg/kg/injection, schedule: Q01DX Z (ip), vehicle: other 96 % of control | dose: 1000.0 mg/kg/injection, schedule: Q01DX Z (ip), vehicle: other 104 % of control and 114 % of control

N#[N+]c1cnc([O-])[nH]c1=O
inactive: [6] 88 % of control | [7] 88 % of control

O=C(Nc1ccc(C2=NCCCN2)cc1)c1ccc(C(=O)Nc2ccc(C3=NCCCN3)cc2)cc1
inactive: dose: 0.2 mg/kg/injection, schedule: Q01DX Z (ip), vehicle: water 100 % of control | dose: 0.4 mg/kg/injection, schedule: Q01DX Z (ip), vehicle: water 108 % of control | dose: 0.8 mg/kg/injection, schedule: Q01DX Z (ip), vehicle: water 121 % of control
active: dose: 1.6 mg/kg/injection, schedule: Q01DX Z (ip), vehicle: water 158 % of control and 211 % of control | dose: 3.1 mg/kg/injection, schedule: Q01DX Z (ip), vehicle: water 212 % of control

C[n+]1c2ccccc2nc2c(N)cc(N)cc21
inactive: dose: 1.6 mg/kg/injection, schedule: Q01DX Z (ip), vehicle: carboxymethylcellulose (CMC) 101 % of control | dose: 3.1 mg/kg/injection, schedule: Q01DX Z (ip), vehicle: carboxymethylcellulose (CMC) 102 % of control | dose: 6.3 mg/kg/injection, schedule: Q01DX Z (ip), vehicle: carboxymethylcellulose (CMC) 98 % of control and 104 % of control | [1] 104 % of control | [2] 104 % of control

N[C@@H](Cc1ccc(N(CCCl)CCCl)cc1)C(=O)O
inactive: dose: 1.25 mg/kg/injection, schedule: Q01DX Z (ip), vehicle: saline 92 % of control | dose: 2.5 mg/kg/injection, schedule: Q01DX Z (ip), vehicle: saline 106 % of control | [8] 123 % of control | [9] 92 % of control
